{"source": "patent US20080166695A1", "about": "“Solution for the storage and perfusion of organs awaiting transplantation” (Sigma-Tau Industrie Farmaceutiche Riunite S.p.A., priority 2001, published 2008)", "origin": "cited, not measured here", "test_system": "isolated rabbit heart", "conditions": "isolated rabbit heart perfused with whole blood with L-carnitine added"}
{"smiles": "C[N+](C)(C)C[C@H](O)CC(=O)[O-]", "note": "[L-carnitine]", "values": [{"measurement": "recovery of cardiac functions", "result": "protective effect"}]}
